Measured values as given in PubChem BioAssay AID1963450 (Molecular Pharmacology Branch, DTP, NCI, 2024).

System: 556581-035-R-J1-PDC complex spheroid growth
Experiment: Anticancer human tumor 556581-035-R-J1-PDC patient-derived ovarian carcinoma cell line growth inhibition [Asc]
Conditions: for IC50: curve of first compound; for viability, T/C: stronger effect = lower value; active = viability on the fitted dose curve at most 10% of control; inactive = the rest
Summary of the method: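 Concentration series start at each agent's clinical Cmax, or at 10 microM when none is established, and drop in half-log steps; agents are applied alone or together to complex spheroids built with HUVEC and hMSC.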

[1] = second compound 0.1 µM, first compound 0.0316 µM
[2] = second compound 0.1 µM, first compound 0.1 µM
[3] = second compound 0.1 µM, first compound 0.316 µM
[4] = second compound 0.1 µM, first compound 1 µM
[5] = second compound 0.1 µM, first compound 3.16 µM
[6] = second compound 0.1 µM, first compound 10 µM
[7] = second compound 0.316 µM, first compound 0.0316 µM
[8] = second compound 0.316 µM, first compound 0.1 µM
[9] = second compound 0.316 µM, first compound 0.316 µM
[10] = second compound 0.316 µM, first compound 1 µM
[11] = second compound 0.316 µM, first compound 3.16 µM
[12] = second compound 0.316 µM, first compound 10 µM
[13] = second compound 1 µM, first compound 0.0316 µM
[14] = second compound 1 µM, first compound 0.1 µM
[15] = second compound 1 µM, first compound 0.316 µM
[16] = second compound 1 µM, first compound 1 µM
[17] = second compound 1 µM, first compound 3.16 µM
[18] = second compound 1 µM, first compound 10 µM
[19] = second compound 3.16 µM, first compound 0.0316 µM
[20] = second compound 3.16 µM, first compound 0.1 µM
[21] = second compound 3.16 µM, first compound 0.316 µM
[22] = second compound 3.16 µM, first compound 1 µM
[23] = second compound 3.16 µM, first compound 3.16 µM
[24] = second compound 3.16 µM, first compound 10 µM
[25] = second compound 10 µM, first compound 0.0316 µM
[26] = second compound 10 µM, first compound 0.1 µM
[27] = second compound 10 µM, first compound 0.316 µM
[28] = second compound 10 µM, first compound 1 µM
[29] = second compound 10 µM, first compound 3.16 µM
[30] = second compound 10 µM, first compound 10 µM
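Also: spheroids exposed to agents for 7 days before viability read.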

C=C(F)C(=O)N1CCN(c2nc(OCC3CCCN3C)nc3c2CCN(c2cccc4cccc(Cl)c24)C3)CC1CC#N (stereo not given) + Cc1c(S(C)(=O)=O)c(-c2cc(F)cc(N3CCN(c4ccc(NS(=O)(=O)c5ccc(NC(CCN6CCC(C(=O)OCCCP(=O)(O)O)CC6)CSc6ccccc6)c(S(=O)(=O)C(F)(F)F)c5)cc4)CC3)c2)c(-c2ccc(Cl)cc2)n1C(C)C
1.27 µM: IC50 (second compound 1 µM)
active: viability, T/C [12] 0.26% | viability, T/C [29] 8.45% | viability, T/C [30] 0.49%
1.01 µM: IC50 (second compound 3.16 µM) | IC50 (second compound 10 µM)
inactive: viability, T/C [1] 80.6% | viability, T/C [2] 87.7% | viability, T/C [3] 79.1% | viability, T/C [4] 76.9% | viability, T/C [5] 35.4% | viability, T/C [6] 30.3% | viability, T/C [7] 69.3% | viability, T/C [8] 86.7% | viability, T/C [9] 87.8% | viability, T/C [10] 68.6% | viability, T/C [11] 18.2% | viability, T/C [13] 73.7% | viability, T/C [14] 71.8% | viability, T/C [15] 64.9% | viability, T/C [16] 56.8% | viability, T/C [17] 23.5% | viability, T/C [18] 25.7% | viability, T/C [19] 63.1% | viability, T/C [20] 61.5% | viability, T/C [21] 67.7% | viability, T/C [22] 50.3% | viability, T/C [23] 22.1% | viability, T/C [24] 27% | viability, T/C [25] 59.6% | viability, T/C [26] 54.5% | viability, T/C [27] 57.8% | viability, T/C [28] 50.4%
1.55 µM: IC50 (second compound 0.316 µM)
2.11 µM: IC50 (second compound 0.1 µM)

C=CC(=O)N1CCN(c2nc(=O)n(-c3c(C)ccnc3C(C)C)c3nc(-c4c(O)cccc4F)c(F)cc23)C(C)C1 (stereo not given) + Cc1c(S(C)(=O)=O)c(-c2cc(F)cc(N3CCN(c4ccc(NS(=O)(=O)c5ccc(NC(CCN6CCC(C(=O)OCCCP(=O)(O)O)CC6)CSc6ccccc6)c(S(=O)(=O)C(F)(F)F)c5)cc4)CC3)c2)c(-c2ccc(Cl)cc2)n1C(C)C
inactive: viability, T/C [1] 86.6% | viability, T/C [2] 83.6% | viability, T/C [3] 78.8% | viability, T/C [4] 89.6% | viability, T/C [5] 80.1% | viability, T/C [6] 57.9% | viability, T/C [7] 90.8% | viability, T/C [8] 98.3% | viability, T/C [9] 79.1% | viability, T/C [10] 80% | viability, T/C [11] 81.8% | viability, T/C [12] 64.9% | viability, T/C [13] 71.8% | viability, T/C [14] 71.6% | viability, T/C [15] 77.6% | viability, T/C [16] 71.5% | viability, T/C [17] 73.6% | viability, T/C [18] 58.9% | viability, T/C [19] 72.1% | viability, T/C [20] 78.1% | viability, T/C [21] 62.2% | viability, T/C [22] 72% | viability, T/C [23] 66.4% | viability, T/C [24] 56.8% | viability, T/C [25] 66.8% | viability, T/C [26] 59.5% | viability, T/C [27] 55.9% | viability, T/C [28] 69.5% | viability, T/C [29] 59.6% | viability, T/C [30] 46.4%
> 10 µM: IC50 (second compound 0.1 µM) | IC50 (second compound 0.316 µM) | IC50 (second compound 1 µM) | IC50 (second compound 3.16 µM) | IC50 (second compound 10 µM)

CCN1C(C(=O)NC23CCC(C(=O)O)(CC2)CC3)C(c2cccc(Cl)c2F)C2(C(=O)Nc3cc(Cl)ccc32)C12CCCCC2 (stereo not given) + Cc1c(S(C)(=O)=O)c(-c2cc(F)cc(N3CCN(c4ccc(NS(=O)(=O)c5ccc(NC(CCN6CCC(C(=O)OCCCP(=O)(O)O)CC6)CSc6ccccc6)c(S(=O)(=O)C(F)(F)F)c5)cc4)CC3)c2)c(-c2ccc(Cl)cc2)n1C(C)C
> 3 µM: IC50 (second compound 0.1 µM) | IC50 (second compound 0.316 µM) | IC50 (second compound 1 µM) | IC50 (second compound 3.16 µM)
0.812 µM: IC50 (second compound 10 µM)
inactive: viability, T/C (second compound 0.1 µM, first compound 0.00949 µM) 80.2% | viability, T/C (second compound 0.1 µM, first compound 0.03 µM) 84.5% | viability, T/C (second compound 0.1 µM, first compound 0.0949 µM) 89.2% | viability, T/C (second compound 0.1 µM, first compound 0.3 µM) 81.3% | viability, T/C (second compound 0.1 µM, first compound 0.949 µM) 82% | viability, T/C (second compound 0.1 µM, first compound 3 µM) 75.8% | viability, T/C (second compound 0.316 µM, first compound 0.00949 µM) 82.2% | viability, T/C (second compound 0.316 µM, first compound 0.03 µM) 77.6% | viability, T/C (second compound 0.316 µM, first compound 0.0949 µM) 85.3% | viability, T/C (second compound 0.316 µM, first compound 0.3 µM) 68.3% | viability, T/C (second compound 0.316 µM, first compound 0.949 µM) 64% | viability, T/C (second compound 0.316 µM, first compound 3 µM) 66.4% | viability, T/C (second compound 1 µM, first compound 0.00949 µM) 87% | viability, T/C (second compound 1 µM, first compound 0.03 µM) 74.2% | viability, T/C (second compound 1 µM, first compound 0.0949 µM) 80.1% | viability, T/C (second compound 1 µM, first compound 0.3 µM) 78.1% | viability, T/C (second compound 1 µM, first compound 0.949 µM) 60.2% | viability, T/C (second compound 1 µM, first compound 3 µM) 52.1% | viability, T/C (second compound 3.16 µM, first compound 0.00949 µM) 65.8% | viability, T/C (second compound 3.16 µM, first compound 0.03 µM) 68.3% | viability, T/C (second compound 3.16 µM, first compound 0.0949 µM) 74.8% | viability, T/C (second compound 3.16 µM, first compound 0.3 µM) 69.4% | viability, T/C (second compound 3.16 µM, first compound 0.949 µM) 77.1% | viability, T/C (second compound 3.16 µM, first compound 3 µM) 47.2% | viability, T/C (second compound 10 µM, first compound 0.00949 µM) 60.2% | viability, T/C (second compound 10 µM, first compound 0.03 µM) 67.6% | viability, T/C (second compound 10 µM, first compound 0.0949 µM) 55.6% | viability, T/C (second compound 10 µM, first compound 0.3 µM) 58.7% | viability, T/C (second compound 10 µM, first compound 0.949 µM) 49% | viability, T/C (second compound 10 µM, first compound 3 µM) 30.8%
